Columns and labels:
[1] = test system: barnyardgrass; assay: Test A pre-/postemergence herbicide test; type: in vivo, Echinochloa crus-galli
Method in brief: (§1)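 Greenhouse injury scoring (0–100, complete control = 100) at approximately ten days follows simultaneous pre- and postemergence application. Soil received a directed spray after seeding; seedlings of 2–10 cm at the one- to two-leaf stage were sprayed to runoff.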

[2] = test system: large crabgrass; assay: Test A pre-/postemergence herbicide test; type: in vivo, Digitaria sanguinalis
Method in brief: as §1

[3] = test system: giant foxtail; assay: Test A pre-/postemergence herbicide test; type: in vivo, Setaria faberi
Method in brief: as §1

[4] = test system: morningglory; assay: Test A pre-/postemergence herbicide test; type: in vivo, Ipomoea spp.
Method in brief: as §1

[5] = test system: redroot pigweed; assay: Test A pre-/postemergence herbicide test; type: in vivo, Amaranthus retroflexus
Method in brief: as §1

[6] = test system: velvetleaf; assay: Test A pre-/postemergence herbicide test; type: in vivo, Abutilon theophrasti
Method in brief: as §1

[7] = test system: barnyardgrass; assay: Test B pre-/postemergence herbicide test; type: in vivo, Echinochloa crus-galli; settings: for Barnyardgrass plant response rating: postemergence, visual rating, scale 0 (no effect) to 100 (complete control)
Method in brief: (§2)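 Greenhouse pot assay with simultaneous preemergence (treated seed) and postemergence (2–18 cm seedlings) applications of surfactant-containing, non-phytotoxic solvent formulations. Response scored visually 13–15 days later on a 0–100 scale, 100 meaning complete control.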

[8] = test system: Surinam grass; assay: Test B pre-/postemergence herbicide test; type: in vivo, Urochloa decumbens; settings: for Surinam Grass plant response rating: postemergence, visual rating, scale 0 (no effect) to 100 (complete control)
Method in brief: (§3)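 Herbicidal effect was judged by eye on a 0–100 scale after plants stood 13 to 15 days in the greenhouse following pre- or postemergence treatment with surfactant-containing formulations.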

[9] = test system: cocklebur; assay: Test B pre-/postemergence herbicide test; type: in vivo, Xanthium strumarium; settings: for Cocklebur plant response rating: postemergence, visual rating, scale 0 (no effect) to 100 (complete control)
Method in brief: as §2

[10] = test system: corn; assay: Test B pre-/postemergence herbicide test; type: in vivo, Zea mays; settings: for Corn plant response rating: postemergence, visual rating, scale 0 (no effect) to 100 (complete control)
Method in brief: as §3

[11] = test system: large crabgrass; assay: Test B pre-/postemergence herbicide test; type: in vivo, Digitaria sanguinalis; settings: for Crabgrass, Large plant response rating: postemergence, visual rating, scale 0 (no effect) to 100 (complete control)
Method in brief: as §3

[12] = test system: giant foxtail; assay: Test B pre-/postemergence herbicide test; type: in vivo, Setaria faberi; settings: for Foxtail, Giant plant response rating: postemergence, visual rating, scale 0 (no effect) to 100 (complete control)
Method in brief: as §3

[13] = test system: lambsquarters; assay: Test B pre-/postemergence herbicide test; type: in vivo, Chenopodium album; settings: for Lambsquarters plant response rating: postemergence, visual rating, scale 0 (no effect) to 100 (complete control)
Method in brief: as §3

[14] = test system: morningglory; assay: Test B pre-/postemergence herbicide test; type: in vivo, Ipomoea coccinea; settings: for Morningglory plant response rating: postemergence, visual rating, scale 0 (no effect) to 100 (complete control)
Method in brief: as §2

[15] = test system: pigweed; assay: Test B pre-/postemergence herbicide test; type: in vivo, Amaranthus retroflexus; settings: for Pigweed plant response rating: postemergence, visual rating, scale 0 (no effect) to 100 (complete control)
Method in brief: as §3

[16] = test system: rice; assay: Test B pre-/postemergence herbicide test; type: in vivo, Oryza sativa; settings: preemergence
Method in brief: as §3

[17] = test system: velvetleaf; assay: Test B pre-/postemergence herbicide test; type: in vivo, Abutilon theophrasti; settings: for Velvetleaf plant response rating: postemergence, visual rating, scale 0 (no effect) to 100 (complete control)
Method in brief: as §3

[18] = test system: blackgrass; assay: Test B postemergence herbicide test; type: in vivo, Alopecurus myosuroides; settings: postemergence, visual rating, scale 0 (no effect) to 100 (complete control)
Method in brief: (§4)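 Greenhouse test; postemergence application to plants at 1–4 leaves (2–18 cm); paddy species at 2 leaves; evaluated visually vs controls at 13–15 days; scale 0–100 (100 = complete control).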

[19] = test system: wheat; assay: Test B postemergence herbicide test; type: in vivo, Triticum aestivum; design: key to Wheat plant response rating: 0 = no effect, 100 = complete control; settings: postemergence, visual rating, scale 0 (no effect) to 100 (complete control)
Method in brief: (§5)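 Scale 0–100: zero equals no visible effect, 100 complete control, judged by eye relative to controls. Timing: 13 to 15 days in greenhouse post-treatment. Growth stage at spraying: two leaves (paddy) or one to four leaves, 2–18 cm (postemergence).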

[20] = test system: wild oat; assay: Test B postemergence herbicide test; type: in vivo, Avena fatua; settings: postemergence, visual rating, scale 0 (no effect) to 100 (complete control)
Method in brief: as §5

[21] = test system: rice; assay: Test B flooded paddy test; type: in vivo, Oryza sativa; settings: 1000 g ai/ha, visual rating, scale 0 to 100 (0 no effect, 100 complete control), 13 to 15 days
Method in brief: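 Treated at 2-leaf (paddy) or 1–4-leaf, 2–18 cm (postemergence); greenhouse 13–15 d; visual score vs control, 0 none to 100 complete control; dash = not tested.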

[22] = test system: small flower umbrella sedge; assay: Test B flooded paddy test; type: in vivo, Cyperus difformis; settings: 1000 g ai/ha, visual rating, scale 0 to 100 (0 no effect, 100 complete control), 13 to 15 days
Method in brief: as §4

[23] = test system: ducksalad; assay: Test B flooded paddy test; type: in vivo, Heteranthera limosa; settings: 1000 g ai/ha, visual rating, scale 0 to 100 (0 no effect, 100 complete control), 13 to 15 days
Method in brief: as §4

[24] = test system: barnyardgrass; assay: Test B flooded paddy test; type: in vivo, Echinochloa crus-galli; settings: 1000 g ai/ha, visual rating, scale 0 to 100 (0 no effect, 100 complete control), 13 to 15 days
Method in brief: as §4

[25] = Postemergence, 500 g ai/ha, 0 to 100 scale, 0 no effect, 100 complete control
[26] = Postemergence, 2000 g ai/ha, 0 to 100 scale, 0 no effect, 100 complete control
[27] = Preemergence, 2000 g ai/ha, visual rating, 0 to 100 scale (0 no effect, 100 complete control)
[28] = preemergence, 500 g ai/ha, visual injury, 0 to 100 scale (0 no effect, 100 complete control)
[29] = 125 g ai/ha, 0 = no effect, 100 = complete control, preemergence
[30] = 500 g ai/ha, visual rating 0-100, 0 no effect, 100 complete control, preemergence

CCc1nc(C(C)(C)C)sc1C(=O)Nc1cccc(C(=O)NCC(C)C)c1 [Compound 211]
65: Velvetleaf plant response rating [6, 27]
40: Pigweed plant response rating [5, 27]
45: Foxtail, Giant plant response rating [3, 28]
85: Crabgrass, Large plant response rating [2, 27]
0: Surinam Grass plant response rating (0 to 100 scale) [8, 29] | Cocklebur plant response rating (0 to 100 scale) [9, 29] | Plant response rating, Cocklebur [9, 30] | Corn plant response rating (0 to 100 scale) [10, 29] | Morningglory plant response rating (0 to 100 scale) [14, 29] | Pigweed plant response rating (0 to 100 scale) [15, 29] | Rice plant response rating (0 to 100 scale) ([16]; 125 g ai/ha, 0 = no effect, 100 = complete control) | Velvetleaf plant response rating (0 to 100 scale) [17, 29]
30: Plant response rating, Crabgrass, Large [2, 26] | Plant response rating, Foxtail, Giant [3, 26] | Pigweed plant response rating [5, 28] | Plant response rating, Surinam Grass [8, 30] | Cocklebur plant response rating ([9]; 125 g ai/ha) | Morningglory plant response rating ([14]; 500 g ai/ha) | Plant response rating, Pigweed [15, 30] | Pigweed plant response rating ([15]; 500 g ai/ha) | Velvetleaf plant response rating ([17]; 125 g ai/ha) | Velvetleaf plant response rating ([17]; 500 g ai/ha) | Sedge, Umbrella plant response rating [22]
50: Plant response rating, Barnyardgrass [7, 30] | Plant response rating, Foxtail, Giant [12, 30]
70: Barnyardgrass plant response rating [1, 27] | Foxtail, Giant plant response rating [3, 27] | Plant response rating, Crabgrass, Large [11, 30] | Lambsquarters plant response rating ([13]; 500 g ai/ha)
75: Crabgrass, Large plant response rating [2, 28]
10: Morningglory plant response rating [4, 28] | Barnyardgrass plant response rating (0 to 100 scale) [7, 29] | Barnyardgrass plant response rating ([7]; 125 g ai/ha) | Barnyardgrass plant response rating ([7]; 500 g ai/ha) | Surinam Grass plant response rating ([8]; 125 g ai/ha) | Surinam Grass plant response rating ([8]; 500 g ai/ha) | Plant response rating, Corn [10, 30] | Corn plant response rating ([10]; 125 g ai/ha) | Corn plant response rating ([10]; 500 g ai/ha) | Crabgrass, Large plant response rating (0 to 100 scale) [11, 29] | Crabgrass, Large plant response rating ([11]; 125 g ai/ha) | Crabgrass, Large plant response rating ([11]; 500 g ai/ha) | Foxtail, Giant plant response rating (0 to 100 scale) [12, 29] | Foxtail, Giant plant response rating ([12]; 125 g ai/ha) | Foxtail, Giant plant response rating ([12]; 500 g ai/ha) | Lambsquarters plant response rating (0 to 100 scale) [13, 29] | Plant response rating, Morningglory [14, 30] | Morningglory plant response rating ([14]; 125 g ai/ha) | Pigweed plant response rating ([15]; 125 g ai/ha) | Plant response rating, Rice ([16]; 500 g ai/ha, visual rating 0-100, 0 no effect, 100 complete control) | Plant response rating, Velvetleaf [17, 30] | Blackgrass plant response rating ([18]; 125 g ai/ha) | Blackgrass plant response rating ([18]; 500 g ai/ha) | Wheat plant response rating ([19]; 125 g ai/ha) | Wheat plant response rating ([19]; 500 g ai/ha) | Oat, Wild plant response rating ([20]; 125 g ai/ha) | Oat, Wild plant response rating ([20]; 500 g ai/ha)
20: Crabgrass, Large plant response rating [2, 25] | Foxtail, Giant plant response rating [3, 25] | Morningglory plant response rating [4, 25] | Rice plant response rating [21] | Barnyardgrass plant response rating [24]
55: Plant response rating, Barnyardgrass [1, 26] | Barnyardgrass plant response rating [1, 28]
15: Plant response rating, Morningglory [4, 26] | Velvetleaf plant response rating [6, 25]
60: Cocklebur plant response rating ([9]; 500 g ai/ha) | Lambsquarters plant response rating ([13]; 125 g ai/ha)
80: Plant response rating, Lambsquarters [13, 30] | Ducksalad plant response rating [23]
25: Barnyardgrass plant response rating [1, 25] | Morningglory plant response rating [4, 27] | Pigweed plant response rating [5, 25] | Plant response rating, Pigweed [5, 26] | Plant response rating, Velvetleaf [6, 26] | Velvetleaf plant response rating [6, 28]

— US20060069132A1, “Azolecarboxamide herbicides” (priority 2004, published 2006)
